The values that follow come from patent US8969408B2, “Use of lignan-type compounds or extract of nutmeg or aril of nutmeg comprising the same” (Biocare Co., Ltd., priority 2007, dated 2015).

Holding throughout (format): cell-based
One assay has as its system Melan-a cells. Briefly: Melanin production inhibition activity in Melan-a cells. How it is done: Specifically, Melan-a cells were placed on a 6-well plate (melanin quantitated) at a concentration of 2×10^5 cells/mL (final volume=3 mL) and cultured in a 10% CO2 incubator (MCO-20AIC, Sanyo) at 37° C., using RPMI 1640 containing 10% FBS and 2 μM TPA (phorbol-12-myristate 13-acetate), for 24 hours. After removing the culture medium, the nutmeg ethanol extract prepared in Example 1-1 was added to RPMI 1640 medium and treated every day for 3 days. 5 days later, the culture medium was removed from the 6-well plate and, after treating with 0.25% trypsin-EDTA solution (Sigma Chemical Co.), cell pellets were collected and transferred to a 1.5 mL tube. After centrifuging at 10,000 rpm for 10 minutes, the supernatant was removed. Thus obtained pellets were dried at 60° C. and added to 100 μL of 1N NaOH in order to dissolve melanin contained in the cells. The solution was diluted with PBS and absorbance was measured at 475 nm using an ELISA reader. Melanin content was calculated according to the following Equation 1. The group to which the nutmeg ethanol extract was not used served as the control group. [formula] […] Melan-a cells were treated with the […] isolated in Example 2-1, and the degree of melanin production was measured in the same manner as Test Example 1-1.

Assay [1] concerns the target T1, tyrosinase (Mus musculus, UniProt P11344).
T1 construct: endogenous in cells; host or cells: Melan-a cells (melanocytes)
T1 sequence (P11344 19-533): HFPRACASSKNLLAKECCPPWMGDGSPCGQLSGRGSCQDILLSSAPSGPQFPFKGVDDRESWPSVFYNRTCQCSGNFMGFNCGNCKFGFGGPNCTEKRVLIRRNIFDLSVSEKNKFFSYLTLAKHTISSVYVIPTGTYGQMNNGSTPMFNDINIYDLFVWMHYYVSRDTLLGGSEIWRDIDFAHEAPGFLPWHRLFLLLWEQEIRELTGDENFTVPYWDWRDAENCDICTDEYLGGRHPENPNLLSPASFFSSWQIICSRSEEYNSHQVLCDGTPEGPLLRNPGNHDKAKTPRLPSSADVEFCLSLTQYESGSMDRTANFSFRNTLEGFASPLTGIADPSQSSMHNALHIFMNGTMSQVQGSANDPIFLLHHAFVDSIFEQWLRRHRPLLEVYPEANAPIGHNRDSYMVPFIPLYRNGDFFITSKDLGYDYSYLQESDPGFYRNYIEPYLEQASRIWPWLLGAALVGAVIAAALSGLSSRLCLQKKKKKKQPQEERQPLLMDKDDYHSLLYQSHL
Briefly: Tyrosinase inhibition activity (DOPA chrome production) in treated Melan-a cells.
Description: 5 days later, the culture medium was removed from the 6-well plate and, after treating with 0.25% trypsin-EDTA solution (Sigma Chemical Co.), cell pellets were collected and transferred to a 1.5 mL tube. After adding 200 μL of phosphate buffer (pH 6.8) followed by centrifuging at 10,000 rpm for 10 minutes, the supernatant was collected. 150 μL of the supernatant was moved to a 96-well microplate and 50 μL of catechol was added. After culturing at 37° C. for 30 minutes, the amount of produced DOPA chrome was determined by measuring absorbance at 490 nm using a microplate reader.

For assay [2], the system named is tyrosinase-related proteins 2 (TRP-2). Briefly: Inhibition of expression of TRP-2 (Western blotting), Melan-a cells. To be noted: result in words. How it is done: (§1) Western blotting and Bradford protein assay were carried out in order to investigate if the nutmeg ethanol extract prepared in Example 1-1 inhibits the expression of tyrosinase, tyrosinase-related protein 1 (TRP-1) and tyrosinase-related proteins 2 (TRP-2).
(§2) Specifically, proteins were extracted from the cells treated in Test Example 1-1 with the nutmeg ethanol extract and subjected to electrophoresis in 10% SDS-polyacrylamide gel. Then, the proteins were transferred from the gel to a nitrocellulose membrane. After treating with 5% skim milk at room temperature for 1 hour, primary antibodies of tyrosinase, TRP-1 and TRP-2 diluted in 5% skim milk to 1:1000 were added and allowed to be incubated at room temperature for 2 hours. After the incubation, the membrane was washed with Tris-buffer saline Tween 20(TBST) twice, for 10 minutes per each, while shaking. Secondary antibodies which recognize the primary antibodies, diluted in 5% skim milk to 1:1000, were added and allowed to be incubated at room temperature for 1 hour. As for the primary antibodies, the membrane was washed with TBST three times, for 10 minutes per each, while shaking, and subjected to development by chemiluminescence.
(§3) Melan-a cells were treated with the macelignan isolated in Example 2-1, and it was investigated if the expression of tyrosinase, TRP-1 and TRP-2 was inhibited, in the same manner as Test Example 3-1.

Assay [3] deals with tyrosinase-related protein 1 (TRP-1). Briefly: Inhibition of expression of TRP-1 (Western blotting), Melan-a cells. To be noted: result in words. As to the method:
as §1, §2, §3
Background: A western blot detects proteins with antibodies after separation by electrophoresis.

In assay [4] the test system is tyrosinase. Briefly: Inhibition of expression of tyrosinase (Western blotting), Melan-a cells. To be noted: result in words. How it is done: as §1, §2, §3

In general, inhibition refers to the percentage by which the read-out fell short of the control. A higher inhibition goes with a response far below the control. Consider `C/C=C/c1cc(OC)c2c(c1)[C@@H](C)[C@H](c1ccc3c(c1)OCO3)O2` [licarin E, 5-(7-methoxy-3-methyl-5-propenyl-2,3-dihydro-benzofuran-2-yl)-benzo[1,3]dioxole], for which the inhibition at 50 µM in the assay with Melan-a cells (50 μM) is approximately 58.4%. Moreover, the “DOPA chrome production inhibition” value on tyrosinase [1] (concentration not given) is given as “about 60.04%”.
As to `COc1cc(C[C@H](C)[C@H](C)Cc2ccc3c(c2)OCO3)ccc1O` [macelignan, 4-((2S,3R)-4-benzo[1,3]dioxol-5-yl-2,3-dimethyl-butyl)-2-methoxyphenol], in assay [2], the “expression of TRP-2 (FIG. 5, FIG. 6)” value is recorded as “could inhibit the expression”. Also, in the assay on Melan-a cells (result in words, P<0.01), the “melanin production inhibition activity (FIG. 1, FIG. 2)” value was “superior melanin production inhibition activity”. Moreover, the “expression of TRP-1 (FIG. 5, FIG. 6)” value in assay [3] is listed as “could inhibit the expression”. Further, the “expression of tyrosinase (FIG. 5, FIG. 6)” value with tyrosinase [4] is on record as “could inhibit the expression”. Besides, the “DOPA chrome production / tyrosinase activity (FIG. 3, FIG. 4)” value at tyrosinase [1] (result in words, P<0.01) is listed as “superior DOPA chrome production inhibition activity”.
